Data taken from KR20130112248A, “피라졸로피리미딘 유도체 화합물, 이를 포함하는 산화질소 생성 억제용 조성물 및 뇌신경 질환 예방 및 치료용 약학적 조성물” (한국과학기술연구원, priority 2012, dated 2013).

The compounds below were run on NO production in BV-2 cells [NO 생성; BV-2 세포] (assay: Nitric oxide (NO) quantification (nitrite, Griess reaction) in LPS-activated BV-2 cells). Details: 20 μM, LPS 0.2 ㎍/mL, 24 h co-treatment, nitrite by Griess at 540 nm.
Format: cell-based

Compound | NO (% of LPS)
N-(2-메톡시벤질)-6-(메틸설파이닐)-1-페닐-1H-피라졸로[3,4-d]피리미딘-4-아민 [화합물 22c] | 55±4 % of LPS
1-t-뷰틸-4-(1-하이드록시에틸)아미노-6-(메틸티오)피라졸로[3,4-d]피리미딘 [화합물 17d] | 93±2 % of LPS

Same assay, conditions: 20 μM, LPS 0.2 ㎍/mL, 24 h co-treatment, nitrite by Griess at 540 nm, 1440 min

Compound | NO (% of LPS)
CC(Nc1nc([S+](C)[O-])nc2c1cnn2Cc1ccccc1)c1ccccc1 (stereo not drawn) [화합물 22j, 1-벤질-6-(메틸설파이닐)-N-(1-페닐에틸)-1H-피라졸로[3,4-d]피리미딘-4-아민] | 70±3.9 % of LPS
CSc1nc(NC(C)c2ccccc2)c2cnn(Cc3ccccc3)c2n1 (stereo not drawn) [화합물 16k, 1-벤질-6-(메틸티오)-N-(1-페닐에틸)-1H-피라졸로[3,4-d]피리미딘-4-아민] | 31±0.5 % of LPS

Same assay, conditions: Mus musculus, BV-2, 24 h, 20 μM, LPS 0.2 ㎍/mL, 24 h co-treatment, nitrite by Griess at 540 nm

Compound | activity at 20 µM [%]
COc1ccccc1CNc1nc([S+](C)[O-])nc2c1cnn2-c1ccc(F)cc1 (stereo not drawn) [화합물 22e, N-(2-메톡시벤질)-1-(4-플루오로페닐)-6-(메틸설파이닐)-1-페닐-1H-피라졸로[3,4-d]피리미딘-4-아민] | 31 ± 6.9
CSc1nc(Cl)c2c(-c3ccccc3)nn(Cc3ccccc3)c2n1 [화합물 30b, 1-벤질-3-페닐-4-클로로-6-(메틸티오)피라졸로[3,4-d]피리미딘] | 31 ± 19
C=CCn1ncc2c(NCc3ccccc3)nc(SC)nc21 [화합물 13a, 1-알릴-4-벤질아미노-6-(메틸티오)피라졸로[3,4-d]피리미딘] | 15 ± 25
CSc1nc(Cl)c2cnn(-c3ccc(F)cc3)c2n1 [5h, 1-(4-플루오로페닐)-4-클로로-6-(메틸티오)피라졸로[3,4-d]피리미딘] | 9 ± 42.2
CSc1nc(Cl)c2cnn(CCNC(=O)OC(C)(C)C)c2n1 [5d, 1-[N-t-Boc-(2-아미노에틸)]-4-클로로-6-(m메틸티오)피라졸로[3,4-d]피리미딘] | 48 ± 4
CSc1nc2c(cnn2Cc2ccccc2)c(=S)[nH]1 [9c, 1-벤질-6-(메틸티오)피라졸로[3,4-d]피리미딘-4-티온] | 79 ± 5
CSc1nc(NCc2ccc(F)cc2)c2cnn(Cc3ccccc3)c2n1 [화합물 16c, 1-벤질-4-(4-플루오로벤질)아미노-6-(메틸티오)피라졸로[3,4-d]피리미딘] | 32.3 ± 3
CC(Nc1nc(N(C)C)nc2c1cnn2Cc1ccccc1)c1ccccc1 (stereo not drawn) [화합물 24g, 1-벤질-N6,N6-디메틸-N4-(1-페닐에틸)-1H-피라졸로[3,4-d]피리미딘-4,6-디아민] | 63 ± 2.6
CS(=O)(=O)c1nc(NC(c2ccccc2)c2ccc(Cl)cc2)c2cnn(-c3ccccc3)c2n1 (stereo not drawn) [화합물 23e, N-((4-클로로페닐)(페닐)메틸)-6-(메틸설포닐)-1-페닐-1H-피라졸로[3,4-d]피리미딘-4-아민] | 36 ± 3.6
C=CCNc1nc(SC)nc2c1c(-c1ccccc1)nn2-c1ccccc1 [화합물 31g, 1-페닐-3-페닐-4-알릴아미노-6-(메틸티오)피라졸로[3,4-d]피리미딘] | 71 ± 3
CSc1nc(NC(C)(C)CO)c2cnn(Cc3ccccc3)c2n1 [화합물 16j, 1-벤질-4-[(1-하이드록시-2,2-다이메틸)에틸]아미노-6-(메틸티오)피라졸로[3,4-d]피리미딘] | 48 ± 8
CSc1nc(NCCc2ccccc2)c2cn[nH]c2n1 [6c, 4-펜에틸아미노-6-(메틸티오)피라졸로[3,4-d]피리미딘] | 91 ± 4
CSc1nc2c(cnn2-c2ccccc2)c(=O)[nH]1 [8b, 1-페닐-6-(메틸티오)피라졸로[3,4-d]피리미딘-4-온] | 75 ± 3
C=CCNc1nc(SC)nc2c1cnn2C(C)(C)C [화합물 17f, 1-t-뷰틸-4-알릴아미노-6-(메틸티오)피라졸로[3,4-d]피리미딘] | 89 ± 8
C=CCSc1nc(SC)nc2c1cnn2-c1ccccc1 [화합물 25b, 1-페닐-4-알릴티오-6-(메틸티오)피라졸로[3,4-d]피리미딘] | 89 ± 6
COc1ccccc1CNc1nc(S(C)(=O)=O)nc2c1cnn2-c1ccc(C)cc1 [화합물 23m, N-(2-메톡시벤질)-6-(메틸설포닐)-1-p-톨릴-1H-피라졸로[3,4-d]피리미딘-4-아민] | 35 ± 3.3
COc1cccc(CCn2ncc3c(NCc4ccccc4Cl)nc(S(C)(=O)=O)nc32)c1 [화합물 23w, N-(2-클로로벤질)-1-(3-메톡시펜에틸)-6-(메틸설포닐)-1H-피라졸로[3,4-d]피리미딘-4-아민] | 54 ± 2.3
COc1ccc(CNc2nc(SC)nc3c2cnn3-c2ccc(C)cc2)cc1 [화합물 21e, N-(4-메톡시벤질)-6-(메틸티오)-1-p-톨릴-1H-피라졸로[3,4-d]피리미딘-4-아민] | 39 ± 3
COc1ccc([C@H](C)Nc2nc(S(C)(=O)=O)nc3c2cnn3Cc2ccccc2)cc1 [화합물 23v, 1-벤질-N-((S)-1-(4-메톡시페닐)에틸)-6-(메틸설포닐)-1H-피라졸로[3,4-d]피리미딘-4-아민] | 59 ± 3
CSc1nc(NC(C)(C)CO)c2cnn(C(C)(C)C)c2n1 [화합물 17o, 2-(1-t-뷰틸-6-(메틸티오)-1H-피라졸로[3,4-d]피리미딘-4-일아미노)-2-메틸프로판-1-올] | 73.6 ± 2.4
CCCCSc1nc(SC)nc2c1cnn2Cc1ccccc1 [화합물 16m, 1-벤질-4-(뷰틸티오)-6-(메틸티오)-1H-피라졸로[3,4-d]피리미딘] | 58 ± 1.9
CSc1nc(NCc2ccccc2Cl)c2cnn(Cc3ccccc3)c2n1 [화합물 16zi, N-(2-클로로벤질)-1-벤질-6-(메틸티오)-1H-피라졸로[3,4-d]피리미딘-4-아민] | 39 ± 3.1
CSc1nc(NCc2ccc(Cl)cc2)c2cnn(C(C)(C)C)c2n1 [화합물 17j, N-(4-클로로벤질)-1-t-뷰틸-6-(methylthio)-1H-피라졸로[3,4-d]피리미딘-4-아민] | 19 ± 3.9
CSc1nc(NCc2ccccc2)c2cnn(-c3ccccc3)c2n1 [화합물 15a, 1-페닐-4-벤질아미노-6-(메틸티오)피라졸로[3,4-d]피리미딘] | 53 ± 12

Compound | activity at 20 µM [%]
COc1cccc(CNc2nc(SC)nc3c2cnn3-c2ccccc2)c1 [화합물 15l, 1-페닐-4-(3-메톡시벤질)아미노-6-(메틸티오)피라졸로[3,4-d]피리미딘] | 50 ± 9
COc1cccc(CCn2ncc3c(NCc4ccccc4Cl)nc(SC)nc32)c1 [화합물 18a, N-(2-클로로벤질)-1-(3-메톡시펜에틸)-6-(메틸티오)-1H-피라졸로[3,4-d]피리미딘-4-아민] | 43 ± 18.1
Cc1ccc(-n2ncc3c(NCc4ccccc4Cl)nc(S(C)(=O)=O)nc32)cc1 [화합물 23l, N-(2-클로로벤질)-6-(메틸설포닐)-1-p-톨릴-1H-피라졸로[3,4-d]피리미딘-4-아민] | 30 ± 37.4
C=CCn1ncc2c(NCc3ccccc3Cl)nc(SC)nc21 [화합물 13o, N-(2-클로로벤질)-1-알릴-6-(메틸티오)-1H-피라졸로[3,4-d]피리미딘-4-아민] | 17.5 ± 1.5
CC(Nc1nc(NCCCCO)nc2c1cnn2Cc1ccccc1)c1ccccc1 (stereo not drawn) [화합물 24c, 4-(4-(1-페닐에틸아미노)-1-벤질-1H-피라졸로[3,4-d]피리미딘-6-일아미노)부탄-1-올] | 123 ± 5.4
CSc1nc(NC(C)(C)CO)c2cn[nH]c2n1 [6l, 4-(2-하이드록시-1-다이메틸에틸)아미노-6-(메틸티오)피라졸로[3,4-d]피리미딘] | 125 ± 14
CC(Nc1nc(S(C)(=O)=O)nc2c1cnn2Cc1ccccc1)C1CCCCC1 (stereo not drawn) [화합물 23t, 1-벤질-N-(1-사이클로헥실에틸)-6-(메틸설포닐)-1H-피라졸로[3,4-d]피리미딘-4-아민] | 42 ± 2.6
COc1ccccc1CNc1nc(SC)nc2c1cnn2C(C)(C)C [화합물 17i, N-(2-메톡시벤질)-1-t-뷰틸-6-(methylthio)-1H-피라졸로[3,4-d]피리미딘-4-아민] | 45 ± 5.9
CSc1nc(Cl)c2cnn(-c3ccccc3)c2n1 [5e, 1-페닐-4-클로로-6-(메틸티오)피라졸로[3,4-d]피리미딘] | 50 ± 7
CSc1nc(NCc2ccccc2)c2c(-c3ccccc3)nn(Cc3ccccc3)c2n1 [32a, 1-벤질-3-페닐-4-벤질아미노-6-(메틸티오)피라졸로[3,4-d]피리미딘] | 53 ± 3
CSc1nc(NCCO)c2cnn(C)c2n1 [12e, 1-메틸-4-(1-하이드록시에틸)아미노-6-(메틸티오)피라졸로[3,4-d]피리미딘] | 91 ± 2
C=CCNc1nc(SC)nc2c1cnn2-c1ccccc1 [화합물 15f, 1-페닐-4-알릴아미노-6-(메틸티오)피라졸로[3,4-d]피리미딘] | 60 ± 17
CCCCNc1nc(SC)nc2c1cnn2Cc1ccccc1 [화합물 16zg, 1-벤질-N-뷰틸-6-(메틸티오)-1H-피라졸로[3,4-d]피리미딘-4-아민] | 55 ± 1.9
CSc1nc(NCc2ccc(Cl)cc2)c2cnn(CCNC(=O)OC(C)(C)C)c2n1 [화합물 14e, 2-(4-(4-클로로벤질아미노)-6-(메틸티오)-1H-피라졸로[3,4-d]피리미딘-1-일)에틸카바메이트] | 26.8 ± 0.1
C=CCNc1nc(SC)nc2c1cnn2CCO [화합물 27c, 1-(1-하이드록시에틸)-4-알릴아미노-6-(메틸티오)피라졸로[3,4-d]피리미딘] | 98 ± 6
CS(=O)(=O)c1nc(NC(c2ccccc2)c2ccc(Cl)cc2)c2cnn(Cc3ccccc3)c2n1 (stereo not drawn) [화합물 23s, 1-벤질-N-((4-클로로페닐)(페닐)메틸)-6-(메틸설포닐)-N-(1-페닐에틸)-1H-피라졸로[3,4-d]피리미딘-4-아민] | 54 ± 2.3
CSc1nc(NCc2ccccc2)c2cnn(C(C)(C)C)c2n1 [화합물 17a, 1-t-뷰틸-4-벤질아미노-6-(메틸티오)피라졸로[3,4-d]피리미딘] | 73 ± 3
COc1cccc(CCn2ncc3c(NCc4ccc(F)cc4)nc(SC)nc32)c1 [화합물 18g, 1-(3-메톡시펜에틸)-N-(4-플루오로벤질)-6-(메틸티오)-1H-피라졸로[3,4-d]피리미딘-4-아민] | 58 ± 4.8
CSc1nc(NCc2ccc(Cl)cc2)c2cnn(C)c2n1 [화합물 12m, 1-메틸-4-(4-클로로벤질)아미노-6-(메틸티오)피라졸로[3,4-d]피리미딘] | 53 ± 6
CSc1nc(NCCc2ccccc2)c2cnn(Cc3ccccc3)c2n1 [화합물 16d, 1-벤질-4-(2-페닐에틸)아미노-6-(메틸티오)피라졸로[3,4-d]피리미딘] | 54 ± 1
CSc1nc(NC(C)c2ccccc2)c2cnn(Cc3ccccc3)c2n1 (stereo not drawn) [화합물 16x, 1-벤질-6-(메틸티오)-N-(1-페닐에틸)-1H-피라졸로[3,4-d]피리미딘-4-아민] | 34 ± 1.4
CSc1nc(NCc2ccccn2)c2cnn(CCNC(=O)OC(C)(C)C)c2n1 [화합물 14k, 2-(4-((피리딘-2-일)메틸아미노)-6-(메틸티오)-1H-피라졸로[3,4-d]피리미딘-1-일)에틸카바메이트] | 61 ± 0.8
COc1ccccc1CNc1nc([S+](C)[O-])nc2c1cnn2-c1ccc(C)cc1 (stereo not drawn) [화합물 22g, N-(2-메톡시벤질)-6-(메틸설파이닐)-1-p-톨릴-1H-피라졸로[3,4-d]피리미딘-4-아민] | 42 ± 2.3

Same assay, conditions: Mus musculus, BV-2, 24 h, 30 μM, LPS 0.2 ㎍/mL, 24 h co-treatment, nitrite by Griess at 540 nm

Compound | activity at 30 µM [%]
CSc1nc(Cl)c2cnn(-c3ccc(F)cc3)c2n1 [5h, 1-(4-플루오로페닐)-4-클로로-6-(메틸티오)피라졸로[3,4-d]피리미딘] | 59.6
CSc1nc2[nH]ncc2c(=O)[nH]1 [8a, 6-(메틸티오)피라졸로[3,4-d]피리미딘-4-온] | 75 ± 0.9
CSc1nc(Cl)c2cn[nH]c2n1 [compound 4, 4-클로로-6-(메틸티오)피라졸로[3,4-d]피리미딘] | 19 ± 4.1
CSc1nc2[nH]ncc2c(=S)[nH]1 [9a, 6-(메틸티오)피라졸로[3,4-d]피리미딘-4-티온] | 98 ± 5.5
COc1nc(SC)nc2[nH]ncc12 [10a, 4-메톡시-6-(메틸티오)피라졸로[3,4-d]피리미딘] | 91 ± 2.4

Same assay, conditions: Mus musculus, BV-2, 24 h, 50 μM (printed in cell of the 30 μM column), LPS 0.2 ㎍/mL, 24 h co-treatment

Compound | activity at 50 µM [%]
CSc1nc(NCc2ccccc2)c2cn[nH]c2n1 [6a, 4-벤질아미노-6-(메틸티오)피라졸로[3,4-d]피리미딘] | 35 ± 4
